In experiment [1] the target is T1, pyk-2 protein kinase (Homo sapiens, UniProt Q14289).
T1 construct: made in house; host or cells: Schizosaccharomyces pombe strain SP200, pRSP expression plasmids
The experiment in a line: Assay measuring PYK-2 protein kinase activity (phosphorylation of a biotinylated peptide). Format: biochemical. Conditions: pyk-2 from transformed yeast lysate, 5 μM ATP; for inhibition at 100 µM: compound at 100 μM; for IC50: cells without %. How it is done:
This assay is used to determine pyk-2 protein kinase activity measuring phosphorylation of a biotinylated peptide as the readout.
a. Yeast transformed with pyk-2.
b. Cell lysates: Yeast cells expressing pyk-2 are pelleted, washed once with water, re-pelleted and stored at −80° C. until use.
(§1) c. N-terminus biotinylated […] is prepared by standard procedures well known to those skilled in the art.
(§2) h. […] S. Pombe strain SP200 (h-s leul.32 ura4 ade21O) was grown as described and transformations were pRSP expression plasmids were done by the lithium acetate method (Superti-Furga, supra). Cells were grown in the presence of 1 μM thiamine to repress expression from the nmtl promoter or in the absence of thiamine to induce expression.
a. Preparation of pyk-2 coated ELISA plate.
1. Coat ELISA plate with 0.5 μg/well anti-pyk-2 mab in 100 μL of pH 9.6 sodium carbonate buffer at 4° C. overnight.
(§3) 2. Wash wells once with PBS.
(§4) 3. Block plate with 0.15 mL 5% milk in PBS for 30 min. at room temperature.
(§5) 4. Wash plate 5× with PBS.
5. Add 10 μg/well of pyk-2 transformed yeast lysates diluted in Lysis Buffer (0.1 mL total volume per well). (Amount of lysate may vary between hatches.) Shake plate for 20 minutes at room temperature.
(§6) b. Preparation of phosphotyrosine antibody-coated ELISA plate.
(§7) 1. 4G10 plate: coat 0.5 μg/well 4G10 in 100 μL PBS overnight at 4° C. and block with 150 μL of 5% milk in PBS for 30 minutes at room temperature.
(§8) c. Kinase assay procedure.
(§9) 1. Remove unbound proteins from steps 1-7, above, and wash plates 5× with PBS.
2. Add 0.08 mL Kinase Reaction Mixture per well (containing […] of 10×Kinase Buffer and 10 pM (final concentration) biotin-[…] per well diluted in water.
(§10) 3. Add 10 μL of compound diluted in water containing 10% DMSO and pre-incubate for 15 minutes at room temperature.
(§11) 4. Start kinase reaction by adding 10 μL/well of 0.05 mM ATP in water (5 μM ATP final).
(§12) 5. Shake ELISA plate for 15 min. at room temperature.
(§13) 6. Stop kinase reaction by adding 10 μL of 0.5 M EDTA per well.
(§14) 7. Transfer 90 μL supernatant to a blocked 4G10 coated ELISA plate from section B, above.
(§15) 8. Incubate for 30 min. while shaking at room temperature.
(§16) 9. Wash plate 5× with TBST.
(§17) 10. Incubate with Vectastain ELITE ABC reagent (100 μL/well) for 30 min. at room temperature.
(§18) 11. Wash the wells 5× with TBST.
(§19) 12. Develop with Turbo TMB.
(§20) The IC50 values were measured for several of the compounds of the invention.

Experiment [2] addresses T2, src protein kinase (Gallus gallus, UniProt P00523).
T2 construct: made in house; host or cells: Schizosaccharomyces pombe strain SP200, pRSP expression plasmids
The experiment in a line: Assay measuring SRC protein kinase activity (phosphorylation of a biotinylated peptide). Conditions: src from transformed yeast lysate, 5 μM ATP; for inhibition at 100 µM: compound at 100 μM; for IC50: cells without %. Format: biochemical. Here is the method:
This assay is used to determine src protein kinase activity measuring phosphorylation of a biotinylated peptide as the readout.
a. Yeast transformed with src.
b. Cell lysates: Yeast cells expressing src are pelleted, washed once with water, re-pelleted and stored at −80° C. until use.
as §1, §2
a. Preparation of src coated ELISA plate.
1. Coat ELISA plate with 0.5 μg/well anti-src mab in 100 μL of pH 9.6 sodium carbonate buffer at 4° C. overnight.
as §3, §4, §5
5. Add 10 μg/well of src transformed yeast lysates diluted in Lysis Buffer (0.1 mL total volume per well). (Amount of lysate may vary between hatches.) Shake plate for 20 minutes at room temperature.
as §6, §7, §8, §9
2. Add 0.08 mL Kinase Reaction Mixture per well (containing 10 μL of 10×Kinase Buffer and 10 μM (final concentration) biotin-[…] per well diluted in water.
as §10, §11, §12, §13, §14, §15, §16, §17, §18, §19, §20

SMILES strings stand for the structures.

T1 sequence (Q14289 whole entry): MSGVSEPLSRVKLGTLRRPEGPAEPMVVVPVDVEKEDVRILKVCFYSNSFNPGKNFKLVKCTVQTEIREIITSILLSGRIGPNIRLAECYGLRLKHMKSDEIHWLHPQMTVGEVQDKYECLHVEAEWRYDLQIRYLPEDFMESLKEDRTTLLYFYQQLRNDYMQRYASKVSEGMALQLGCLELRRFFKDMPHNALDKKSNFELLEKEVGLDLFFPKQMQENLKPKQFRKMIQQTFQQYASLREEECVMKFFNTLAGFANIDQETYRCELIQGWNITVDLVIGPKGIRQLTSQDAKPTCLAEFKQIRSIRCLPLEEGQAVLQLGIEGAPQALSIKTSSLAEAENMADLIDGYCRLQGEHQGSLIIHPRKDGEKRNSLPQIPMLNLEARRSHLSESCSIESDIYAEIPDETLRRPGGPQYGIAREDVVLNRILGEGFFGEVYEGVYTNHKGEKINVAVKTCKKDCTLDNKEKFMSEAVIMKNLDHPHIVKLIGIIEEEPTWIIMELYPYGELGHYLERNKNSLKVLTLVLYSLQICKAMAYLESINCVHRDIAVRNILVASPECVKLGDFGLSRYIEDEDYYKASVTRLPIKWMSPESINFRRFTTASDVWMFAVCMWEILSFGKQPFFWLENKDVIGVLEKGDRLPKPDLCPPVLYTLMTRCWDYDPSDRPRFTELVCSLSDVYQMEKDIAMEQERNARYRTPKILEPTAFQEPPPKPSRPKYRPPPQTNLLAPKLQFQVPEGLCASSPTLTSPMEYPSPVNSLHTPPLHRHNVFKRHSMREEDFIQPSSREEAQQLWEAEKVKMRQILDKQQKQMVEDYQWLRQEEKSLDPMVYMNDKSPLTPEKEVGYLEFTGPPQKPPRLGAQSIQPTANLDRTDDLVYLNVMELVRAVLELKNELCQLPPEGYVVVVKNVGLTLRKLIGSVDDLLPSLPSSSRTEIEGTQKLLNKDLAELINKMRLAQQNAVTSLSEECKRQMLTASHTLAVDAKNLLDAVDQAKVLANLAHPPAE

For the compound `O=C1Nc2ccccc2/C1=C/c1cc2ccccc2[nH]1` [IN-012, 3-(1H-Indol-2-ylmethylene)-1,3-dihydro-indol-2-one], the inhibition (as a rule, the change of the read-out against control, counted positive when it falls) at 100 µM in experiment [1] was 5.1%; in experiment [2], -12%. `NS(=O)(=O)c1ccc2c(c1)/C(=C/c1cc3ccccc3[nH]1)C(=O)N2` [IN-008, 3-(1H-Indol-2-ylmethylene)-2-oxo-2,3-dihydro-1H-indole-5-sulfonic acid amide]: the IC50 (commonly the midpoint of a concentration-inhibition curve) in experiment [1] turned out to be 9.6 µM. The inhibition at 100 µM in experiment [2] is -11%.

On to `Cc1c(/C=C2\C(=O)Nc3ccc(Cl)cc32)[nH]c2ccccc12` [IN-017, 5-Chloro-3-(3-methyl-1H-indol-2-ylmethylene)-1,3-dihydro-indol-2-one], for which the values for the inhibition at 100 µM in experiment [1] and in experiment [2] were -12% and 21.4%, respectively. Regarding `Cc1cccc2c1/C(=C/c1[nH]c3ccccc3c1C)C(=O)N2` [IN-019, 4-Methyl-3-(3-methyl-1H-indol-2-ylmethylene)-1,3-dihydro-indol-2-one], the inhibition at 100 µM in experiment [1] was -36%; in experiment [2], -6.5%.

For `CC(=O)c1ccc2c(c1)C(=Cc1cc3ccccc3[nH]1)C(=O)N2` [IN-007, 5-Acetyl-3-(1H-indol-2-ylmethylene)-1,3-dihydro-indol-2-one], the inhibition at 100 µM is 17.9% in experiment [1] and 12.4% in experiment [2].

For the compound `Cc1c(/C=C2\C(=O)Nc3ccc(Br)cc32)[nH]c2ccccc12` [IN-018, 5-Bromo-3-(3-methyl-1H-indol-2-ylmethylene)-1,3-dihydro-indol-2-one], the inhibition at 100 µM in experiment [1] worked out at 62%; in experiment [2] it was 19.5%. Compound `Cc1c(/C=C2\C(=O)Nc3ccc(C(=O)O)cc32)[nH]c2ccccc12` [IN-005, 3-(3-Methyl-1H-indol-2-ylmethylene)-2-oxo-2,3-dihydro-1H-indole-5-carboxylic acid] registered an IC50 in experiment [1] of 0.22 µM. Consider `Cc1c(/C=C2\C(=O)Nc3ccc(S(N)(=O)=O)cc32)[nH]c2ccccc12` [IN-002, 3-(3-Methyl-1H-indol-2-ylmethylene)-2-oxo-2,3-dihydro-1H-indole-5-sulfonic acid amide], for which the figures for the inhibition at 100 µM in experiment [1] and in experiment [2] were 46.7% and -3.5%, respectively.

Regarding `Cc1c(/C=C2\C(=O)Nc3ccccc32)[nH]c2ccccc12` [IN-016, 3-(3-Methyl-1H-indol-2-ylmethylene)-1,3-dihydro-indol-2-one], the inhibition at 100 µM in experiment [1] was -12.5%; in experiment [2], 20.2%. Regarding `Nc1ccc2c(c1)/C(=C/c1cc3ccccc3[nH]1)C(=O)N2` [IN-009, 5-Amino-3-(1H-indol-2-ylmethylene)-1,3-dihydro-indol-2-one], the results for the IC50 in experiment [1] and in experiment [2] were 0.68 µM and 9 µM, respectively. In the case of `CC(=O)c1ccc2c(c1)C(=Cc1[nH]c3ccccc3c1C)C(=O)N2` [IN-006, 5-Acetyl-3-(3-methyl-1H-indol-2-ylmethylene)-1,3-dihydro-indol-2-one], in experiment [1], the inhibition at 100 µM is 27%. The compound further showed a half-inhibitory concentration (IC50) in experiment [2] of over 100 µM.

Take `Cc1ccc2c(c1)/C(=C/c1[nH]c3ccccc3c1C)C(=O)N2` [IN-001, 5-Methyl-3-(3-methyl-1H-indol-2-ylmethylene)-1,3-dihydro-indol-2-one]: the inhibition at 100 µM in experiment [1] is -16%; in experiment [2], -62%. On the same counts, the results for `O=C1Nc2cc(Cl)ccc2/C1=C/c1cc2ccccc2[nH]1` [IN-011, 6-Chloro-3-(1H-indol-2-ylmethylene)-1,3-dihydro-indol-2-one] are 7.4% and -38.5%.

With `O=C1Nc2ccc(Cl)cc2/C1=C/c1cc2ccccc2[nH]1` [IN-013, 5-chloro-3-(1H-indol-2-ylmethylene)-1,3-dihydro-indol-2-one], the inhibition at 100 µM in experiment [1] is -12%; in experiment [2], -0.6%.

`O=C1Nc2ccc(C(=O)O)cc2/C1=C/c1cc2ccccc2[nH]1` [IN-010, 3-(1H-Indol-2-ylmethylene)-2-oxo-2,3-dihydro-1H-indole-5-carboxylic acid]: the 50% inhibitory concentration (IC50) in experiment [1] stood at 3.4 µM. In addition, in experiment [2], the inhibition at 100 µM stood at 36.4%.

Values taken from patent US6680335B2, “Methods of modulating protein tyrosine kinase function with substituted indolinone compounds” (Sugen, Inc., priority 1998, dated 2004).
